Results published in the supplement of paper PMC10307832.

Legend:
Experiment in all cases: relative viability (nuclei count vs DMSO), 5 days (fraction); higher = more cells survive
[1] = compound: O=C(NC1CCNCC1)c1n[nH]cc1NC(=O)c1c(Cl)cccc1Cl [AT-7519] + CCNC(=O)c1noc(-c2cc(C(C)C)c(O)cc2O)c1-c1ccc(CN2CCOCC2)cc1 [Luminespib] (partner 0.01 µM)
Summary of the method: (§1)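 Lung cancer cell lines were pin-tool dosed in 1536-well plates on the day after seeding, with either a lone drug or a fixed anchor-drug dose plus five library-drug doses (not always all listed) in √10 steps. Nuclei were counted on 4× images after 5 days. Relative viability is the ratio of treated-well to vehicle-well nuclei counts, with each value a median of duplicate plates.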

[2] = compound: C1=CC2=C(C=C(C(=C2N=C1)O)N=NC3=CC4=C(C=C3)C=C(C=C4)S(=O)(=O)O)S(=O)(=O)O + C[C@]1(O)C[C@@H](c2nc(-c3ccc4ccc(-c5ccccc5)nc4c3)c3c(N)nccn32)C1 [Linsitinib] (partner 1 µM)
Summary of the method: as §1

[3] = compound: C1=CC2=C(C=C(C(=C2N=C1)O)N=NC3=CC4=C(C=C3)C=C(C=C4)S(=O)(=O)O)S(=O)(=O)O + COc1cccc2cc(-c3nc([C@H]4CC[C@H](C(=O)O)CC4)n4ncnc(N)c34)[nH]c12 [OSI-027] (partner 0.5 µM)
Summary of the method: as §1

[4] = compound: C1=CC2=C(C=C(C(=C2N=C1)O)N=NC3=CC4=C(C=C3)C=C(C=C4)S(=O)(=O)O)S(=O)(=O)O + N=C(N)NC(=N)NCCc1ccccc1 [Phenformin] (partner 250 µM)
Summary of the method: as §1

| Cell Line | relative viability ([1]; first compound 0.01 µM) | relative viability ([1]; first compound 0.03162 µM) | relative viability ([1]; first compound 0.3162 µM) | relative viability ([1]; first compound 1 µM) | relative viability ([2]; first compound 0.08 µM) | relative viability ([2]; first compound 0.253 µM) | relative viability ([2]; first compound 0.8 µM) | relative viability ([2]; first compound 2.53 µM) | relative viability ([2]; first compound 8 µM) | relative viability ([3]; first compound 0.08 µM) | relative viability ([3]; first compound 0.253 µM) | relative viability ([3]; first compound 0.8 µM) | relative viability ([3]; first compound 2.53 µM) | relative viability ([3]; first compound 8 µM) | relative viability ([4]; first compound 0.08 µM) | relative viability ([4]; first compound 0.253 µM) | relative viability ([4]; first compound 0.8 µM) | relative viability ([4]; first compound 2.53 µM) | relative viability ([4]; first compound 8 µM) |
| --- | --- | --- | --- | --- | --- | --- | --- | --- | --- | --- | --- | --- | --- | --- | --- | --- | --- | --- | --- |
| HOP-62 | 1.02 | 0.916 | 0.993 | 0.859 | 0.992 | 0.893 | 1.01 | 1 | 0.926 | 0.843 | 0.817 | 0.67 | 0.807 | 0.836 | 0.836 | 0.584 | 0.618 | 0.645 | 0.53 |
| CAL-12T | 0.438 | 0.509 | 0.15 | 0.0831 | 0.938 | 0.753 | 0.751 | 0.773 | 0.889 | 0.592 | 0.585 | 0.577 | 0.819 | 0.831 | 0.536 | 0.522 | 0.502 | 0.693 | 0.358 |
| NCI-H520 | 0.233 | 0.239 | 0.263 | 0.209 | 1.1 | 1.12 | 1.07 | 0.968 | 1.01 | 0.215 | 0.219 | 0.201 | 0.274 | 0.22 | 0.493 | 0.496 | 0.585 | 0.321 | 0.727 |
| NCI-H1755 | 0.59 | 0.38 | 0.345 | 0.416 | 1.08 | 0.969 | 0.954 | 1.05 | 0.991 | 0.705 | 0.74 | 0.786 | 0.689 | 0.703 | 0.597 | 0.59 | 0.605 | 0.63 | 0.651 |
| NCI-H2023 | 0.622 | 0.748 | 0.521 | 0.16 | 0.675 | 0.593 | 0.69 | 0.675 | 0.653 | 0.434 | 0.431 | 0.454 | 0.367 | 0.552 | 0.393 | 0.394 | 0.432 | 0.376 | 0.379 |
| NCI-H2009 | 1.03 | 1.03 | 1.02 | 0.881 | 1.21 | 1.07 | 1.21 | 1.2 | 1.19 | 0.574 | 0.6 | 0.645 | 0.642 | 0.71 | 0.498 | 0.455 | 0.504 | 0.498 | 0.441 |
